The values below come from patent US12172975B2, “1H-indazole carboxamides as receptor-interacting protein kinase 1 inhibitors (RIPK1)” (BRISTOL-MYERS SQUIBB COMPANY, priority 2018, dated 2024).

Structures can show the parent of a compound that is named as a salt. Where two headings read alike, the source gives them in different places.

Experiment [1] has as its target His-GST-TVMV-hRIPK1 (1-324) (Homo sapiens (Human), UniProt Q13546). Kind of experiment: RIPK1 HTRF Binding Assay. As to conditions: read-out: RIPK1 HTRF (IC50); FRET probe displacement, 1 h at rt. Background: TR-FRET usually uses a lanthanide donor and a delayed reading to cut background.
For experiment [2], the system named is MLKL phosphorylation in HT29-L23 human colorectal adenocarcinoma cells. Nature of the experiment: MLKL Phosphorylation High-Content Assay. As to conditions: 6 h, necroptosis induced with TNFα, SMAC mimetic and Z-VAD, read-out: pMLKL (IC50). Format: cell-based. In outline: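 HT29-L23 cells were induced to necroptosis with TNFα (35 ng/mL), SMAC mimetic (700 nM) and Z-VAD (140 nM) for 6 h at 37 °C. Phospho-MLKL (S358) immunofluorescence was imaged and quantified per cell; maximal inhibition set by Nec-1s (6.25 μM), and IC50/Ymax from 4-parameter logistic fit.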

Sequence of His-GST-TVMV-hRIPK1 (1-324) (Q13546 1-324): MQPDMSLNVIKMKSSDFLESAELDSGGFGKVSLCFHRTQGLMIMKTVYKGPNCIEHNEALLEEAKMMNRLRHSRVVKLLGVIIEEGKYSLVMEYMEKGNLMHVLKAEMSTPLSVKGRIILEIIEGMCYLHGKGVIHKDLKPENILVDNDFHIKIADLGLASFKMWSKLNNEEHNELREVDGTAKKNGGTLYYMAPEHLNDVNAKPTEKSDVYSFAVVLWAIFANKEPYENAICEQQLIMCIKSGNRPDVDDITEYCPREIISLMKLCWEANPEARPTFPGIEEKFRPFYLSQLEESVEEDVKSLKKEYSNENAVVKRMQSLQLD

The IC50 is the concentration at which inhibition is half-maximal. As for `CNC(=O)c1n[nH]c2cc(-c3cnc(OC)c(C(=O)N[C@@H](C)CC(=O)OC(C)(C)C)c3)cc(F)c12` [Example 146, tert-butyl (3S)-3-({5-[4-fluoro-3-(methylcarbamoyl)-1H-indazol-6-yl]-2-methox-pyridin-3-yl}formamido)-butanoate], the figures for the IC50 in experiment [1] and in experiment [2] (Homo sapiens) were 69 nM and 400 nM, respectively.
`CNC(=O)c1n[nH]c2cc(-c3cnc(OC)c(C(=O)NCC(O)COc4ccccc4)c3)ccc12` (centres unmarked) [Example 56, 6-{5-[(2-hydroxy-3-phenoxy-propyl)carbamoyl]-6-meth-oxypyridin-3-yl}-N-methyl-1H-indazole-3-carboxamide]: the results for the IC50 in experiment [1] and in experiment [2] (Homo sapiens) were 8.4 nM and 26 nM, respectively.
The matching figures for `CNC(=O)c1n[nH]c2cc(-c3cnc(OC)c(C(=O)NCCCOc4ccc(F)cc4)c3)ccc12` [Example 63, 6-(5-{[3-(4-fluorophenoxy)-propyl]carbamoyl}-6-methoxy-pyridin-3-yl)-N-methyl-1H-indazole-3-carboxamide]: 2.3 nM and 16 nM.
Taken in the same sequence, the figures for `CCOC(=O)C(C)(C)CNC(=O)c1cc(-c2ccc3c(C(=O)NC)n[nH]c3c2)cnc1OC` [Example 88, ethyl 3-({2-methoxy-5-[3-(methylcarbamoyl)-1H-indazol-6-yl]pyridin-3-yl}-formamido)-2,2-dimethyl-propanoate] were 52 nM and 250 nM.
As to `CNC(=O)c1n[nH]c2cc(-c3cnc(OC)c(C(=O)NCc4ccccc4OC(C)C)c3)ccc12` [Example 93, 6-[6-methoxy-5-({[2-(propan-2-yloxy)phenyl]methyl}-carbamoyl)pyridin-3-yl]-N-methyl-1H-indazole-3-carbox-amide], the half-inhibitory concentration (IC50) in experiment [1] came out at 1.3 nM; in experiment [2], 8.3 nM.
The matching figures for `COc1ncc(-c2ccc3c(C(=O)NC4CC4)n[nH]c3c2)cc1C(=O)N[C@@H]1CN(C(=O)C2CCC(F)(F)C2)C[C@@H]1F` (stereo partly drawn) [Example 199, N-cyclopropyl-6-(5-{[(3R,4S)-1-(3,3-difluorocyclopentanecarbon-yl)-4-fluoropyrrolidin-3-yl]-carbamoyl}-6-(deutero)methoxy-pyridin-3-yl)-1H-indazole-3-carboxamide, TFA]: 340 nM and 99 nM.
As to `COc1ncc(-c2ccc3c(C(=O)NC4CC4)n[nH]c3c2)cc1C(=O)N[C@H](C)c1cccc(OC(F)(F)F)c1` [Example 205, N-cyclopropyl-6-[6-(deutero)-methoxy-5-{[(1R)-1-[3-(trifluoro-methoxy)phenyl](2,2,2-deutero)-ethyl]carbamoyl}pyridin-3-yl]-1H-indazole-3-carboxamide, TFA], the half-maximal inhibitory concentration (IC50) in experiment [1] came to 20 nM; in experiment [2], 60 nM.
Take `[2H]C([2H])([2H])Oc1ncc(-c2ccc3c(C(=O)NC([2H])([2H])C([2H])([2H])[2H])n[nH]c3c2)cc1C(=O)N[C@H](c1cc(OC(F)(F)F)ccc1F)C([2H])([2H])[2H]` [Example 1]: the concentration for half-maximal inhibition (IC50) in experiment [1] was 17 nM; in experiment [2] (Homo sapiens), 6.1 nM.
The matching figures for `CNC(=O)c1n[nH]c2cc(-c3cnc(OC)c(C(=O)NC45CC6CC(C4)CC(c4ccccc4)(C6)C5)c3)ccc12` [Example 95, 6-{6-methoxy-5-[(3-phenyl-adamantan-1-yl)carbamoyl]-pyridin-3-yl}-N-methyl-1H-indazole-3-carboxamide]: 17 nM and 9.3 nM.
`CNC(=O)c1n[nH]c2cc(-c3cnc(OC)c(C(=O)NCc4cc(F)cc(F)c4OCC4CC4)c3)ccc12` [Example 128, 6-[5-({[2-(cyclopropylmeth-oxy)-3,5-difluorophenyl]-methyl}carbamoyl)-6-meth-oxypyridin-3-yl]-N-methyl-1H-indazole-3-carboxamide]: the IC50 came to 2.3 nM in experiment [1] and 3.1 nM in experiment [2] (Homo sapiens).
Consider `[2H]C([2H])([2H])Oc1ncc(-c2ccc3c(C(=O)NC([2H])([2H])C([2H])([2H])[2H])n[nH]c3c2)cc1C(=O)N[C@H](C)c1ccccc1OC(F)(F)F` [Example 2, (R)—N-(ethyl-d5)-6-(6-(methoxy-d3)-5-((1-(2-(trifluoromethoxy)phenyl)ethyl)carbamoyl)pyridin-3-yl)-1H-indazole-3-carboxamide], for which the IC50 was 5.5 nM in experiment [1] and 3.5 nM in experiment [2] (Homo sapiens).
In the case of `CNC(=O)c1n[nH]c2cc(-c3cnc(OC)c(C(=O)NCc4ccccc4NC(=O)OC(C)(C)C)c3)ccc12` [Example 73, tert-butyl-N-{2-[({2-methoxy-5-[3-(methylcarbamoyl)-1H-indazol-6-yl]pyridin-3-yl}-formamido)methyl]phenyl}-carbamate], the IC50 was 4.7 nM in experiment [1] and 120 nM in experiment [2] (Homo sapiens).
With `CCNC(=O)c1n[nH]c2cc(-c3cnc(OC)c(C(=O)N[C@H](C)c4cc(OC(F)(F)F)ccc4F)c3)ccc12` [Example 233, N-[(1,1,2,2,2-deutero)ethyl]-6-(5-{[(1R)-1-[2-fluoro-5-(trifluorometh-oxy)phenyl](2,2,2-deutero)ethyl]-carbamoyl}-6-(deutero)methoxy-pyridin-3-yl)-1H-indazole-3-carbox-amide], the values for the IC50 in experiment [1] and in experiment [2] were 54 nM and 77 nM, respectively.
As to `CNC(=O)c1n[nH]c2cc(-c3cnc(OC)c(C(=O)NCc4ccccc4OC4CCCCC4)c3)ccc12` [Example 113, 6-[5-({[2-(cyclohexyloxy)-phenyl]methyl}carbamoyl)-6-methoxypyridin-3-yl]-N-methyl-1H-indazole-3-carbox-amide], the values for the IC50 in experiment [1] and in experiment [2] were 27 nM and 9.7 nM, respectively.
Turning to `[2H]C([2H])([2H])Oc1ncc(-c2ccc3c(C(=O)NC4CC4)n[nH]c3c2)cc1C(=O)N[C@H](C)c1cccc(OC(F)(F)F)c1` [Example 202, N-cyclopropyl-6-[6-(deutero)-methoxy-5-{[(1R)-1-[3-(trifluoro-methoxy)phenyl]ethyl]carbam-oyl}pyridin-3-yl]-1H-indazole-3-carboxamide], the values for the half-maximal inhibitory concentration (IC50) in experiment [1] and in experiment [2] (Homo sapiens) were 36 nM and 53 nM, respectively.
As to `CNC(=O)c1n[nH]c2cc(-c3cnc(OC)c(C(=O)NCc4ccccc4CN(C)C)c3)ccc12` [Example 54, 6-{5-[({2-[(dimethylamino)-methyl]phenyl}methyl)carbam-oyl]-6-methoxypyridin-3-yl}-N-methyl-1H-indazole-3-carboxamide], the IC50 amounted to 28 nM in experiment [1] and 120 nM in experiment [2].
The matching figures for `CNC(=O)c1n[nH]c2cc(-c3cnc(OC)c(C(=O)NCC4(COc5ccccc5)CC4)c3)ccc12` [Example 68, 6-[6-methoxy-5-({[1-(phenoxy-methyl)cyclopropyl]methyl}-carbamoyl)-pyridin-3-yl]-N-methyl-1H-indazole-3-carbox-amide]: 4.6 nM and 28 nM.
As for `[2H]C([2H])([2H])NC(=O)c1n[nH]c2cc(-c3cnc(OC([2H])([2H])[2H])c(C(=O)NC(C)c4cc(F)ccc4C(F)(F)F)c3)ccc12` (centres unmarked) [Example 212], the IC50 stood at 15 nM in experiment [1] and 28 nM in experiment [2] (Homo sapiens).
Turning to `CNC(=O)c1n[nH]c2cc(-c3cnc(OC)c(C(=O)NCc4ccccc4OC4CCC(C)C4)c3)ccc12` (centres unmarked) [Example 131, 6-{6-methoxy-5-[({2-[(3-methylcyclopentyl)oxy]-phenyl}methyl)carbamoyl]-pyridin-3-yl}-N-methyl-1H-indazole-3-carboxamide], the IC50 worked out at 10 nM in experiment [1] and 2.3 nM in experiment [2] (Homo sapiens).
The matching figures for `CCCCNC(=O)c1n[nH]c2cc(-c3cnc(OC)c(C(=O)NCc4ccccc4OC(F)(F)F)c3)ccc12` [Example 175, N-butyl-6-[6-methoxy-5-({[2-(trifluoromethoxy)phenyl]-methyl}carbamoyl)pyridin-3-yl]-1H-indazole-3-carboxamide]: 9.9 nM and 29 nM.
As to `CCNC(=O)c1n[nH]c2cc(-c3cnc(OC)c(C(=O)N[C@@H](C)c4cc(C(F)(F)F)ccc4F)c3)ccc12` [Example 236, N-[(1,1,2,2,2-deutero)ethyl]-6-(5-{[(1S)-1-[2-fluoro-5-(trifluorometh-yl)phenyl](2,2,2-deutero)ethyl]-carbamoyl}-6-(deutero)methoxy-pyridin-3-yl)-1H-indazole-3-carbox-amide], the IC50 was 37 nM in experiment [1] and 40 nM in experiment [2].
As for `CNC(=O)c1n[nH]c2cc(-c3cnc(OC)c(C(=O)NC4CCCC(NC(=O)C(C)(C)C)C4)c3)ccc12` (single isomer, unassigned) [Example 17, 6-(6-methoxy-5-((3-pivalamidocyclohexyl)carbamoyl)pyridin-3-yl)-N-methyl-1H-indazole-3-carboxamide], the IC50 in experiment [1] is 21 nM; in experiment [2] (Homo sapiens), 19 nM.
As to `CNC(=O)c1n[nH]c2cc(-c3cc(C(=O)NCc4cccc(OC(F)(F)F)c4)c(OC)nc3C)ccc12` [Example 160, 6-[6-methoxy-2-methyl-5-({[3-(trifluoromethoxy)-phenyl]methyl}carbamoyl)-pyridin-3-yl]-N-methyl-1H-indazole-3-carboxamide], the figures for the 50% inhibitory concentration (IC50) in experiment [1] and in experiment [2] (Homo sapiens) were 27 nM and 120 nM, respectively.
The matching figures for `[2H]C([2H])([2H])Oc1ncc(-c2ccc3c(C(=O)NC)n[nH]c3c2)cc1C(=O)NC(C)c1cc(F)ccc1C(F)(F)F` (centres unmarked) [Example 36, 6-[5-({1-[5-fluoro-2-(trifluoro-methyl)phenyl]ethyl}carbamoyl)-6-(deutero)methoxypyridin-3-yl]-N-methyl-1H-indazole-3-carbox-amide]: 9.3 nM and 20 nM.
The matching figures for `COc1ncc(-c2ccc3c(C(=O)NC4CC(=O)N(C)C4)n[nH]c3c2)cc1C(=O)NCc1ccccc1OC(F)(F)F` (centres unmarked) [Example 187, 6-[6-methoxy-5-({[2-(trifluoro-methoxy)phenyl]methyl}-carbamoyl)pyridin-3-yl]-N-(1-methyl-5-oxopyrrolidin-3-yl)-1H-indazole-3-carboxamide, TFA]: 28 nM and 78 nM.
